Assay results published in ChEMBL document CHEMBL1201862, “PubChem BioAssay data set” (2004).
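Interpolation was linear, between the two tested concentrations surrounding the appropriate level; five concentrations were tested over 48 hours in 96-well plates. At the GI50, growth is halved.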 Active and inactive are the calls of the source. No stated cut-off is given here; in the data, active = GI50 up to about 1.1 µM and inactive = higher.

Columns and labels:
Test in all cases: NCI tumour cell line growth inhibition, 48 h
[1] = tested on: BT-549
[2] = tested on: UACC-257
[3] = tested on: NCI-H23
[4] = tested on: RXF 393
[5] = tested on: NCI/ADR-RES
[6] = tested on: SF-295
[7] = tested on: MDA-N
[8] = tested on: UO-31
[9] = tested on: HT-29
[10] = tested on: T47D
[11] = tested on: RPMI-8226
[12] = tested on: SW-620
[13] = tested on: OVCAR-3
[14] = tested on: OVCAR-4
[15] = tested on: ACHN
[16] = tested on: NCI-H522
[17] = tested on: HOP-92
[18] = tested on: SF-539
[19] = tested on: U-251
[20] = tested on: CCRF-CEM
[21] = tested on: DU-145
[22] = tested on: MOLT-4
[23] = tested on: K562
[24] = tested on: SK-MEL-28
[25] = tested on: NCI-H226
[26] = tested on: SK-MEL-2
[27] = tested on: HCC 2998
[28] = tested on: SK-OV-3
[29] = tested on: A549
[30] = tested on: COLO 205
[31] = tested on: KM12
[32] = tested on: SNB-19
[33] = tested on: 786-0
[34] = tested on: SNB-75
[35] = tested on: SK-MEL-5
[36] = tested on: OVCAR-5
[37] = tested on: MDA-MB-435
[38] = tested on: M14
[39] = tested on: NCI-H460
[40] = tested on: EKVX
[41] = tested on: UACC-62
[42] = tested on: OVCAR-8
[43] = tested on: PC-3
[44] = tested on: MCF7
[45] = tested on: SF-268
[46] = tested on: HL-60
[47] = tested on: MDA-MB-231
[48] = tested on: HOP-62
[49] = tested on: IGROV-1
[50] = tested on: LOX IMVI
[51] = tested on: Hs-578T
[52] = tested on: TK-10
[53] = tested on: CAKI-1
[54] = tested on: HCT-15
[55] = tested on: A498
[56] = tested on: HCT-116
[57] = tested on: SN12C
[58] = tested on: Malme-3M

With `COc1ccc(Nc2nc(N)c(C(=O)c3ccc(Cl)cc3)s2)cc1` the GI50 [1] was < 0.0135 µM (active), the GI50 [2] was 42.9 µM (inactive) and the GI50 [3] was < 0.0152 µM (active). For the same compound, the GI50 [4] was < 0.01 µM (active), the GI50 [5] was < 0.01 µM (active) and the GI50 [6] was < 0.01 µM (active). For the same compound, the GI50 [7] was < 0.01 µM (active), the GI50 [8] was < 0.01 µM (active) and the GI50 [9] was < 0.0108 µM (active). For the same compound, the GI50 [10] was 24 µM (inactive), the GI50 [11] was < 0.01 µM (active) and the GI50 [12] was < 0.01 µM (active). For the same compound, the GI50 [13] was < 0.01 µM (active), the GI50 [14] was 0.121 µM (active) and the GI50 [15] was < 0.01 µM (active). The GI50 [16] was < 0.01 µM (active), the GI50 [17] was 18.2 µM (inactive) and the GI50 [18] was < 0.01 µM (active). For the same compound, the GI50 [19] was < 0.01 µM (active), the GI50 [20] was < 0.01 µM (active) and the GI50 [21] was < 0.01 µM (active). For the same compound, the GI50 [22] was < 0.01 µM (active), the GI50 [23] was < 0.01 µM (active) and the GI50 [24] was 1.02 µM (active). The GI50 [25] was 0.018 µM (active), the GI50 [26] was < 0.01 µM (active) and the GI50 [27] was 0.0357 µM (active). The GI50 [28] was < 0.01 µM (active), the GI50 [29] was < 0.0224 µM (active) and the GI50 [30] was 0.0261 µM (active). For the same compound, the GI50 [31] was 0.0432 µM (active), the GI50 [32] was < 0.01 µM (active) and the GI50 [33] was < 0.01 µM (active). The GI50 [34] was < 0.01 µM (active), the GI50 [35] was 0.0123 µM (active) and the GI50 [36] was 0.505 µM (active). The GI50 [37] was < 0.01 µM (active), the GI50 [38] was < 0.01 µM (active) and the GI50 [39] was < 0.01 µM (active). The GI50 [40] was 39.6 µM (inactive), the GI50 [41] was < 0.01 µM (active) and the GI50 [42] was < 0.0126 µM (active). The GI50 [43] was < 0.01 µM (active), the GI50 [44] was 0.356 µM (active) and the GI50 [45] was 0.297 µM (active). The GI50 [46] was < 0.01 µM (active), the GI50 [47] was 0.047 µM (active) and the GI50 [48] was < 0.01 µM (active). For the same compound, the GI50 [49] was 0.0655 µM (active), the GI50 [50] was < 0.01 µM (active) and the GI50 [51] was < 0.01 µM (active). The GI50 [52] was 3.61 µM (inactive), the GI50 [53] was < 0.01 µM (active) and the GI50 [54] was 0.0439 µM. The GI50 [55] was < 0.01 µM (active), the GI50 [56] was < 0.01 µM (active) and the GI50 [57] was 0.307 µM (active).

For `CC(C)CCCC(C)[C@H]1CC[C@H]2[C@@H]3CC[C@H]4C[C@@H](CCC=C(c5cc(Cl)c(O)c(C(=O)OC(C)(C)C)c5)c5cc(Cl)c(O)c(C(=O)OC(C)(C)C)c5)CC[C@]4(C)[C@H]3CC[C@]12C` (some centres undefined), the GI50 [1] was > 50 µM (inactive), the GI50 [3] was > 50 µM (inactive) and the GI50 [4] was > 50 µM (inactive). For the same compound, the GI50 [5] was > 50 µM (inactive), the GI50 [6] was > 50 µM (inactive) and the GI50 [7] was > 50 µM (inactive). For the same compound, the GI50 [9] was > 50 µM (inactive), the GI50 [10] was > 50 µM (inactive) and the GI50 [11] was > 50 µM (inactive). For the same compound, the GI50 [12] was > 50 µM (inactive), the GI50 [13] was > 50 µM (inactive) and the GI50 [14] was > 50 µM (inactive). The GI50 [18] was 15.7 µM (inactive), the GI50 [19] was > 50 µM (inactive) and the GI50 [20] was > 50 µM (inactive). For the same compound, the GI50 [21] was > 50 µM (inactive), the GI50 [22] was > 50 µM (inactive) and the GI50 [23] was > 50 µM (inactive). For the same compound, the GI50 [24] was > 50 µM (inactive), the GI50 [26] was > 50 µM (inactive) and the GI50 [27] was > 50 µM (inactive). The GI50 [28] was > 50 µM (inactive), the GI50 [29] was > 50 µM (inactive) and the GI50 [30] was > 50 µM (inactive). The GI50 [31] was > 50 µM (inactive), the GI50 [32] was > 50 µM (inactive) and the GI50 [33] was > 50 µM (inactive). The GI50 [34] was > 50 µM (inactive), the GI50 [35] was > 50 µM (inactive) and the GI50 [36] was > 50 µM (inactive). The GI50 [37] was > 50 µM (inactive), the GI50 [38] was > 50 µM (inactive) and the GI50 [40] was > 50 µM (inactive). The GI50 [41] was > 50 µM (inactive), the GI50 [43] was > 50 µM (inactive) and the GI50 [44] was > 50 µM (inactive). For the same compound, the GI50 [45] was > 50 µM (inactive), the GI50 [46] was > 50 µM (inactive) and the GI50 [47] was > 50 µM (inactive). For the same compound, the GI50 [48] was > 50 µM (inactive), the GI50 [49] was > 50 µM (inactive) and the GI50 [50] was > 50 µM (inactive). The GI50 [51] was > 50 µM (inactive), the GI50 [53] was > 50 µM (inactive) and the GI50 [54] was over 50 µM. For the same compound, the GI50 [55] was > 50 µM (inactive), the GI50 [56] was > 50 µM (inactive) and the GI50 [57] was > 50 µM (inactive).

`COc1ccc([C@H]2C=C(c3cc(F)c(Cl)cc3Cl)N=c3s/c(=C\c4ccc(-c5ccc(Cl)cc5Cl)o4)c(=O)n32)cc1` was tested, and the GI50 [1] was 47.2 µM (inactive), the GI50 [2] was 30 µM (inactive) and the GI50 [3] was 38.9 µM (inactive). For the same compound, the GI50 [4] was 39.6 µM (inactive), the GI50 [5] was 44.5 µM (inactive) and the GI50 [6] was 43.2 µM (inactive). The GI50 [7] was 28.1 µM (inactive), the GI50 [8] was 32.9 µM (inactive) and the GI50 [9] was 37.2 µM (inactive). For the same compound, the GI50 [10] was 19.6 µM (inactive), the GI50 [11] was 32.5 µM (inactive) and the GI50 [12] was 51.1 µM (inactive). For the same compound, the GI50 [14] was 37.3 µM (inactive), the GI50 [15] was > 100 µM (inactive) and the GI50 [58] was 99.1 µM (inactive). The GI50 [16] was 52.2 µM (inactive), the GI50 [17] was 31.6 µM (inactive) and the GI50 [18] was 34.6 µM (inactive). The GI50 [19] was 34.8 µM (inactive), the GI50 [21] was 71 µM (inactive) and the GI50 [22] was 31.9 µM (inactive). For the same compound, the GI50 [23] was 38.8 µM (inactive), the GI50 [24] was > 100 µM (inactive) and the GI50 [25] was 24.6 µM (inactive). For the same compound, the GI50 [26] was 20.1 µM (inactive), the GI50 [27] was 20.1 µM (inactive) and the GI50 [28] was 21.5 µM (inactive). For the same compound, the GI50 [29] was > 100 µM (inactive), the GI50 [30] was 80 µM (inactive) and the GI50 [31] was 60.1 µM (inactive). For the same compound, the GI50 [32] was 31.9 µM (inactive), the GI50 [33] was 42.4 µM (inactive) and the GI50 [34] was 38.4 µM (inactive). For the same compound, the GI50 [35] was 36.6 µM (inactive), the GI50 [36] was 39.4 µM (inactive) and the GI50 [37] was 30.5 µM (inactive). The GI50 [38] was 55.3 µM (inactive), the GI50 [39] was 48.4 µM (inactive) and the GI50 [41] was 25.5 µM (inactive). For the same compound, the GI50 [42] was 37.8 µM (inactive), the GI50 [43] was 99.3 µM (inactive) and the GI50 [44] was 26.9 µM (inactive). The GI50 [45] was 35.6 µM (inactive), the GI50 [47] was 25.5 µM (inactive) and the GI50 [48] was 18.8 µM (inactive). The GI50 [49] was 30.3 µM (inactive), the GI50 [50] was 38 µM (inactive) and the GI50 [51] was 34.8 µM (inactive). For the same compound, the GI50 [52] was 12.1 µM (inactive), the GI50 [53] was 80.5 µM (inactive) and the GI50 [54] was 33.8 µM. The GI50 [55] was 2.48 µM (inactive), the GI50 [56] was 35.1 µM (inactive) and the GI50 [57] was 47.8 µM (inactive).
